# Legend:
# [1] = tested on: Escherichia coli strain 25922; test: Determination of MIC against bacteria (Table 1), E. coli 25922; assay type: cell-based; settings: Escherichia coli, 25922, 24 h, read-out: minimum inhibitory concentration (MIC), E. coli 25922
# Description: (§1) Antibiotic indicator strains Escherichia coli strain 25922, Enterococcus faecalis 29212, Pseudomonas aeruginosa 27853, and Staphylococcus aureus 29213 are obtained from the American Type Tissue Culture Collection (ATCC) in Rockville, Md. The cystic fibrosis isolate, Pseudomonas aeruginosa 39324, is also obtained from ATCC. Bacteria are routinely cultivated in cation-supplemented Mueller-Hinton broth (CAMHB) or agar at 37° C.
# (§2) The minimum inhibitory concentration (MIC) of glycosylated and non-glycosylated steroidal polyamines for antibiotic indicator strains is determined by dissolving the test compounds in deionized water to a final concentration of 1 mg per mL. […] These solutions are sterilized by filtration through 0.22 micron syringe filters.
# (§3) Stock solutions of individual compounds are serially diluted (two-fold) in sterile CAMHB in 96-well tissue culture dishes (Falcon) and inoculated with antibiotic indicator strains that are prepared as described below.
# (§4) Antibiotic indicator strains are grown in 5 mL of CAMHB for 3-4 h at 37° C. with shaking (200 rpm) on a New Brunswick rotary shaker. Bacteria are adjusted to a turbidity that matched a 0.5 McFarland standard (ca. 10^8 CFU per mL) in sterile 0.85% saline. These bacterial suspensions are diluted 1:20 in sterile 0.85% saline and 10 μL (ca. […]) of each suspension is used to inoculate individual wells of a 96 well plate that contained different concentrations of the test compounds. Following inoculation, the plates are sealed with plastic tape, incubated for 24 h at 37° C. and visually inspected for bacterial growth. CAMHB inoculated with each of the antibiotic test strains and uninoculated CAMBH plus each of the test compounds served as positive and negative controls.
# [2] = tested on: Pseudomonas aeruginosa 39324; test: Determination of MIC against bacteria (Table 1), P. aeruginosa 39324 (cystic fibrosis isolate); assay type: cell-based; settings: Pseudomonas aeruginosa, 39324, 24 h, read-out: minimum inhibitory concentration (MIC), P. aeruginosa 39324
# Description: as §1, §2, §3, §4
# [3] = tested on: Enterococcus faecalis 29212; test: Determination of MIC against bacteria (Table 1), E. faecalis 29212; assay type: cell-based; settings: Enterococcus faecalis, 29212, 24 h, read-out: minimum inhibitory concentration (MIC), E. faecalis 29212
# Description: as §1, §2, §3, §4
# [4] = Stability of a 5% solution of the trifluoroacetate salt at room temperature; assay type: physicochemical
# Description: (§5) To a solution of spermine (0.8 g, 2 mmol) and triethylamine (0.3 mL) in 5 mL of DMF is added dropwise the N-oxysuccinimidechenodeoxycholate (1.0 g, 2 mmol) in 5 mL of DMF. The mixture is stirred overnight at room temperature, then poured into DCM (100 mL). The precipitate of the hydroxysuccinimide is filtered, and the filtrate is evaporated to give a liquid phase, which is poured into water (100 mL). The precipitate of the product is obtained. It is dissolved in MeOH (5 mL) and passed through a CHP-20 reverse-phase column. A […] in water solvent system is used to elute the product. The solvent is removed by evaporation, and the residue is dissolved in 1 mL of trifluoroacetic acid. The resulting solution is diluted up to 10 mL with water, filtered, and the filtrate subsequently lyophilized to afford 0.9 g (50% yield) of a solid (m.p. 96°-100° C.). […] A 5% solution of the trifluoroacetate salt of the chenodeoxycholic acid-spermine conjugate is stable at room temperature over about 12-24 h, after which a precipitate of the base separates as a slurry. TLC (MeOH:i-PrNH2 :DCM 1:1:2) Rf 0.7. IR (KBr): 3406, 2939, 2869, 1778 (COOH), 1680 (CONH--), 1553, 1458, 1196, 834, 722 cm^-1. ^1 H NMR (D2 O): δ3.75 (s, 1H), 3.4 (s, 1H), 2.8-3.15 (m, 12H), 2.2-1.2 (m, 39H), 0.9 (d, 3H), 0.86 (s, 3H), 0.55 (s, 3H). Fab MS: (M+Na^+)=598. Anal. Calc. for C34 H64 N4 O3.3CF3 COOH: C 52.5; H 7.29; N 6.09. […]
# Solubility in water = assay type: physicochemical; settings: trifluoroacetate salt
# Description: as §5
# [5] = tested on: Staphylococcus aureus 29213; test: Determination of MIC against bacteria (Table 1), S. aureus 29213; assay type: cell-based; settings: Staphylococcus aureus, 29213, 24 h, read-out: minimum inhibitory concentration (MIC), S. aureus 29213
# Description: as §1, §2, §3, §4
# [6] = tested on: Pseudomonas aeruginosa 27853; test: Determination of MIC against bacteria (Table 1), P. aeruginosa 27853; assay type: cell-based; settings: Pseudomonas aeruginosa, 27853, 24 h, read-out: minimum inhibitory concentration (MIC), P. aeruginosa 27853
# Description: as §1, §2, §3, §4
# E. coli 25922 = test: Augmentation assay: MIC of erythromycin (Table 2), E. coli 25922; assay type: cell-based; settings: Escherichia coli, 25922, 24 h, read-out: MIC of erythromycin, E. coli 25922
# Description: (§6) Stock solutions 1-2 mg/mL of test compounds are prepared in distilled water, filter-sterilized through a […] filter and diluted in CAMHB to the desired starting concentration. Aliquots of each test compound (0.1 mL), at 2× the final concentration, are added to the first rows of 96 well plates. The remaining wells of these plates are charged with 0.1 mL aliquots of each test compound at the desired final concentration. Subsequently, 0.1 mL of solutions of erythromycin, gentamicin, or vancomycin, prepared in CAMHB, are added to the first rows of these plates and serially diluted.
# (§7) The wells are inoculated in duplicate with each of four antibiotic indicator strains prepared as described previously above. The final concentrations of antibiotics tested in these experiments range from 0.185-250 μg per mL. Plates containing each of the antibiotics serially diluted in CAMHB alone are also inoculated with antibiotic indicator strains to determine the MIC of erythromycin, gentamicin and vancomycin in the absence of the compounds of the invention. The plates are sealed with plastic tape, incubated in for 24 h at 37° C., visually inspected for bacterial growth. The MIC of erythromycin, gentamicin and vancomycin for each of the indicator strains in the presence or absence of test compound is subsequently determined.
# P. aeruginosa 39324 = test: Augmentation assay: MIC of erythromycin (Table 2), P. aeruginosa 39324; assay type: cell-based; settings: Pseudomonas aeruginosa, 39324, 24 h, read-out: MIC of erythromycin, P. aeruginosa 39324
# Description: as §6, §7
# P. aeruginosa 27853 = test: Augmentation assay: MIC of erythromycin (Table 2), P. aeruginosa 27853; assay type: cell-based; settings: Pseudomonas aeruginosa, 27853, 24 h, read-out: MIC of erythromycin, P. aeruginosa 27853
# Description: as §6, §7
SMILES,MIC [1] [µg/mL],MIC [2] [µg/mL],MIC [3] [µg/mL],"stability of 5% solution, time before a precipitate of the base separates [4] [h]",solubility in water (Solubility in water),MIC [5] [µg/mL],MIC [6] [µg/mL],MIC (E. coli 25922) [µg/mL],MIC (P. aeruginosa 39324) [µg/mL],MIC (P. aeruginosa 27853) [µg/mL]
"C[C@H](CCC(=O)NCCCNCCCCNCCCN)[C@H]1CC[C@H]2[C@@H]3[C@H](O)C[C@@H]4C[C@H](O)CC[C@]4(C)[C@H]3CC[C@]12C [Compound H, 3α,7α-dihydroxy-12-deoxy-5β-cholan-24-oic acid, N-(4,9-diaza-12-aminododecyl)amide]",25,50 to 100,3.12,12 to 24,soluble in water,6.25,12.5,–,–,–
"CC[C@H]1OC(=O)[C@H](C)[C@@H](O[C@H]2C[C@@](C)(OC)[C@@H](O)[C@H](C)O2)[C@H](C)[C@@H](O[C@@H]2O[C@H](C)C[C@H](N(C)C)[C@H]2O)[C@](C)(O)C[C@@H](C)C(=O)[C@H](C)[C@@H](O)[C@]1(C)O [Erythromycin, erythromycin]",–,–,–,–,–,–,–,125,> 250,> 250

# Source: patent US5744453A, “Polyamine conjugates for treatment of infection” (priority 1996, dated 1998)
